One test concerns Venturia inaequalis. The test is described as follows: Apple scab (VENTIN) disease control. It is filed as in vivo. Particulars: 1 Day Protectant, 100 ppm. The method, then:
Technical grades of materials were dissolved in acetone, which were then mixed with nine volumes of water containing 110 ppm Triton X-100. The fungicide solutions were applied onto wheat seedlings using an automated booth sprayer to run-off. All sprayed plants were allowed to air dry prior to further handling. All fungicides were evaluated using the aforementioned method for their activity vs. all target diseases. Wheat leaf blotch and brown rust activity were also evaluated using track spray applications, in which case the fungicides were formulated as EC formulations, containing 0.1% Trycol 5941 in the spray solutions. Wheat plants (variety Yuma) were grown from seed in a greenhouse in 50% mineral soil/50% soil-less Metro mix until the first leaf was fully emerged, with 7-10 seedlings per pot. These plants were inoculated with an aqueous spore suspension of Septoria tritici either prior to or after fungicide treatments. After inoculation the plants were kept in 100% relative humidity (one day in a dark dew chamber followed by two to three days in a lighted dew chamber at 20° C.) to permit spores to germinate and infect the leaf. The plants were then transferred to a greenhouse set at 20° C. for disease to develop. When disease symptoms were fully expressed on the l^st leaves of untreated plants, infection levels were assessed on a scale of 0 to 100 percent disease severity. Percent disease control was calculated using the ratio of disease severity on treated plants relative to untreated plants. Evaluation of Fungicidal Activity: Apple Scab (Venturia inaequalis; Bayer code […]) Apple seedlings (variety McIntosh) were grown in soil-less Metro mix, with one plant per pot. Seedlings with two expanding young leaves at the top (older leaves at bottom of the plants were trimmed) were used in the test. Plants were inoculated with a spore suspension of Venturia inaequalis 24 hr after fungicide treatment and kept in a 22° C. dew chamber with 100% RH for 48 hr, and then moved to a greenhouse set at 20° C. for disease to develop. Fungicide formulation, application and disease assessment on the sprayed leaves followed the procedures as described in the Example A.

In another test the test system is Phakopsora pachyrhizi. The test is described as follows: Asian soybean rust (PHAKPA) disease control. The settings on record: 25 ppm; for PHAKPA 1DP disease control rating: 1 Day Protectant; for PHAKPA 3DC disease control rating: 3 Day Curative. It is filed as in vivo. The method, then:
Evaluation of Fungicidal Activity: Asian Soybean Rust (Phakopsora pachyrhizi; Bayer Code PHAKPA)
Technical grades of materials were dissolved in acetone, which were then mixed with nine volumes of water containing 0.011% Tween 20. The fungicide solutions were applied onto soybean seedlings using an automated booth sprayer to run-off. All sprayed plants were allowed to air dry prior to further handling.
Soybean plants (variety Williams 82) were grown in soil-less Metro mix, with one plant per pot. Two weeks old seedlings were used for testing. Plants were inoculated either 3 days prior to or 1 day after fungicide treatments. Plants were incubated for 24 h in a dark dew room at 22° C. and 100% RH then transferred to a growth room at 23° C. for disease to develop. Disease severity was assessed on the sprayed leaves.

Turning to `CCCO[C@H]1CCC[C@H](NC(=O)c2nccc(OC)c2OCOC(C)=O)C(=O)O[C@@H](C)[C@@H]1CCC(C)C` [Compound 25, ((2-(((3S,7S,8S,9S)-8-isopentyl-9-methyl-2-oxo-7-propoxyoxonan-3-yl)carbamoyl)-4-methoxypyridin-3-yl)oxy)methyl acetate], the “VENTIN disease control rating” value in the test with Venturia inaequalis is given as “A (>70)”. Moreover, in the test with Phakopsora pachyrhizi, the “PHAKPA 1DP disease control rating” value was “A (>70)” and the “PHAKPA 3DC disease control rating” value is on record as “B (≦70)”.
In the case of `CCCO[C@H]1CCC[C@H](NC(=O)c2nccc(OC)c2OC(C)=O)C(=O)O[C@@H](C)[C@@H]1CCC(C)C` [Compound 74, 2-(((3S,7S,8S,9S)-8-isopentyl-9-methyl-2-oxo-7-propoxyoxonan-3-yl)carbamoyl)-4-methoxypyridin-3-yl acetate], in the test with Venturia inaequalis, the “VENTIN disease control rating” value was “A (>70)”. For the same compound, in the test on Phakopsora pachyrhizi, the “PHAKPA 1DP disease control rating” value is on record as “A (>70)” and the “PHAKPA 3DC disease control rating” value is “B (≦70)”.
For the compound `COc1ccnc(C(=O)N[C@H]2CCC[C@H](Oc3ccccc3)[C@@H](CCC(C)C)[C@H](C)OC2=O)c1OCOC(C)=O` [Compound 40], the “VENTIN disease control rating” value in the test with Venturia inaequalis is “A (>70)”. In the test on Phakopsora pachyrhizi, the “PHAKPA 1DP disease control rating” value is recorded as “A (>70)” and the “PHAKPA 3DC disease control rating” value is recorded as “B (≦70)”.
Turning to `COc1ccnc(C(=O)N[C@H]2CCC[C@H](Oc3ccccc3)[C@@H](CCC(C)C)[C@H](C)OC2=O)c1OC(C)=O` [Compound 36], the “VENTIN disease control rating” value in the test on Venturia inaequalis is “B (≦70)”. Besides, in the test with Phakopsora pachyrhizi, the “PHAKPA 1DP disease control rating” value is on record as “A (>70)” and the “PHAKPA 3DC disease control rating” value is given as “B (≦70)”.
`CCCO[C@H]1CCC[C@H](NC(=O)c2nccc(OC)c2OC(C)=O)C(=O)O[C@@H](C)[C@@H]1Cc1ccccc1` [Compound 70]: the “VENTIN disease control rating” value in the test with Venturia inaequalis was “A (>70)”. In addition, in the test on Phakopsora pachyrhizi, the “PHAKPA 1DP disease control rating” value is “A (>70)” and the “PHAKPA 3DC disease control rating” value is “B (≦70)”.

The values above are taken from patent publication US9247741B2, “Use of macrocyclic picolinamides as fungicides” (DOW AGROSCIENCES LLC, priority 2013, dated 2016).
